Results on one compound are retold here after patent publication US9271978B2 (Zenith Epigenetics Corp., priority 2012, dated 2016).

This experiment has as its system Rat collagen-induced arthritis. The experiment in a line: In vivo efficacy in rat collagen-induced arthritis. Particulars: female Lewis rats, dosed Day 11 to Day 17. The protocol:
Rat collagen-induced arthritis is an experimental model of polyarthritis that has been widely used for preclinical testing of numerous anti-arthritic agents. Following administration of collagen, this model establishes a measurable polyarticular inflammation, marked cartilage destruction in association with pannus formation and mild to moderate bone resorption and periosteal bone proliferation. In this model, collagen was administered to female Lewis strain of rats on Day 1 and 7 of study and dosed with compounds from Day 11 to Day 17. Test compounds were evaluated to assess the potential to inhibit the inflammation (including paw swelling), cartilage destruction and bone resorption in arthritic rats, using a model in which the treatment is administered after the disease has been established.

In the case of `Cc1noc(C)c1-c1ccc(=O)n(Cc2ccc(Cl)cc2)c1` [Example 128, 1-(4-Chlorobenzyl)-5-(3,5-dimethylisoxazol-4-yl)pyridin-2(1H)-one], the In vivo activity result is reported as “Active”.
